Data reported in PMC12221116, “Novel Quinazolinones Active against Multidrug‐Resistant Mycobacterium Tuberculosis: Synthesis, Antimicrobial Evaluation, and in Silico Exploration of Penicillin‐Binding Protein 1A as a Potential Target” (Chemmedchem, 2025).
Converted amounts (≈) assume the structure as drawn. Where two headings read alike, the source gives them in different places.

Tests used:
[1] = tested on: Mtb H37Rv; test: Microplate Alamar Blue assay, MIC; type: cell-based, Mycobacterium tuberculosis; settings: for MIC: Mycobacterium tuberculosis, H37RV
[2] = tested on: Mtb H37Ra; test: Microdilution broth resazurin assay, MIC; type: cell-based, Mycobacterium tuberculosis
[3] = tested on: M. kansasii; test: Microplate Alamar Blue assay, MIC; type: cell-based, Mycobacterium kansasii; settings: for MIC: Mycobacterium kansasii, read-out: Antimycobacterial Activity MIC M. kans.
[4] = tested on: M. avium; test: Microdilution broth resazurin assay, MIC; type: cell-based, Mycobacterium avium
[5] = tested on: M. smegmatis; test: Microdilution broth resazurin assay, MIC; type: cell-based, Mycolicibacterium smegmatis
[6] = tested on: M. aurum; test: Microdilution broth resazurin assay, MIC; type: cell-based, Mycolicibacterium aurum
[7] = tested on: HepG2; settings: cytotoxicity
[8] = tested on: MRC-5; settings: cytotoxicity
[9] = tested on: HepG2; test: cells; settings: Homo sapiens
[10] = tested on: MRC-5; test: cells; settings: Homo sapiens
[11] = Table S5 matching pairs series A and B
[12] = read-out: IC50 for HepG2 [24 h], 24 h incubation
[13] = read-out: IC50 for MRC-5 [24 h], 24 h incubation
[14] = Microplate Alamar Blue assay, read-out: Antimycobacterial Activity MIC Mtb H37Rv
[15] = read-out: Antimycobacterial Activity MIC Mtb H37Rv, Table S5 matching pairs series A and B
[16] = Mycobacterium tuberculosis, H37RA, read-out: Antimycobacterial Activity MIC Mtb H37Ra
[17] = Mycobacterium avium; read-out: Antimycobacterial Activity MIC M. avium
[18] = Mycolicibacterium smegmatis; read-out: Antimycobacterial Activity MIC M. smeg.
[19] = Mycolicibacterium aurum; read-out: Antimycobacterial Activity MIC M. aurum
[20] = HepG2, 24 h, read-out: IC50 for HepG2 [24 h]
[21] = HepG2, 72 h, read-out: IC50 for HepG2 [72 h]
[22] = MRC5, 24 h, read-out: IC50 for MRC-5 [24 h]
[23] = MRC5, 72 h, read-out: IC50 for MRC-5 [72 h]
[24] = Mycobacterium avium, read-out: Antimycobacterial Activity MIC M. avium
[25] = Mycolicibacterium smegmatis, read-out: Antimycobacterial Activity MIC M. smeg.
[26] = Mycolicibacterium aurum, read-out: Antimycobacterial Activity MIC M. aurum
[27] = Mycobacterium tuberculosis, H37RA; read-out: Antimycobacterial Activity MIC Mtb H37Ra

Structure (SMILES) | MIC [1, 14] [µg/mL] | MIC [3] [µg/mL] | MIC [4, 24] [µg/mL] | MIC [5, 25] [µg/mL] | MIC [6, 26] [µg/mL] | MIC [2, 27] [µg/mL] | other results
COc1cccc(Cn2c(C)nc3ccccc3c2=O)c1 [Compound 2] | – | – | – | – | – | – | Antimycobacterial Activity MIC Mtb H37Rv ([1]; Microplate Alamar Blue assay): 100 µg/mL; Antimycobacterial Activity MIC Mtb H37Ra [2]: 62.5 µg/mL; Antimycobacterial Activity MIC Mtb H37Ra [2, 11]: 62.5 µg/mL; Antimycobacterial Activity MIC M. kans. [3]: 100 µg/mL; Antimycobacterial Activity MIC M. avium [4]: 62.5 µg/mL; Antimycobacterial Activity MIC M. avium [4, 11]: 62.5 µg/mL; Antimycobacterial Activity MIC M. smeg. [5]: 250 µg/mL; Antimycobacterial Activity MIC M. smeg. [5, 11]: 250 µg/mL; Antimycobacterial Activity MIC M. aurum [6]: 125 µg/mL; Antimycobacterial Activity MIC M. aurum [6, 11]: 125 µg/mL; IC50 [7, 12]: 305 ± 3 µM; IC50 ([7]; read-out: IC50 for HepG2 [72 h], 72 h incubation): 135 ± 6 µM; IC50 [8, 13]: > 300 µM; IC50 ([8]; read-out: IC50 for MRC-5 [72 h], 72 h incubation): 215 ± 24 µM
Cc1nc2ccccc2c(=O)n1Cc1cccc(Cl)c1 [Compound 6] | – | – | – | – | – | – | Antimycobacterial Activity MIC Mtb H37Rv ([1]; Microplate Alamar Blue assay): 50 µg/mL; Antimycobacterial Activity MIC Mtb H37Rv [1, 11]: 50 µg/mL; Antimycobacterial Activity MIC Mtb H37Ra [2]: 31.25 µg/mL; Antimycobacterial Activity MIC Mtb H37Ra [2, 11]: 31.25 µg/mL; Antimycobacterial Activity MIC M. kans. [3]: 25 µg/mL; Antimycobacterial Activity MIC M. kans. [3, 11]: 25 µg/mL; Antimycobacterial Activity MIC M. avium [4]: 31.25 µg/mL; Antimycobacterial Activity MIC M. avium [4, 11]: 31.25 µg/mL; Antimycobacterial Activity MIC M. smeg. [5]: 62.5 µg/mL; Antimycobacterial Activity MIC M. smeg. [5, 11]: 62.5 µg/mL; Antimycobacterial Activity MIC M. aurum [6]: 62.5 µg/mL; Antimycobacterial Activity MIC M. aurum [6, 11]: 62.5 µg/mL; IC50 [7, 12]: 507 ± 48 µM; IC50 [8, 13]: 551 ± 19 µM
Cc1nc2cc(Cl)ccc2c(=O)n1Cc1cccc(Cl)c1 [Compound 21] | 25 (≈ 78.3 µM) | > 100 | – | – | – | – | MIC [1, 15]: 25 µg/mL (≈ 78.3 µM); Antimycobacterial Activity MIC Mtb H37Ra [2]: 15.625 µg/mL; MIC [2, 16]: 15.6 µg/mL (≈ 49 µM); MIC [4, 17]: ≥ 250 µg/mL; Antimycobacterial Activity MIC M. avium [4, 11]: ≥ 250 µg/mL; MIC [5, 18]: ≥ 250 µg/mL; Antimycobacterial Activity MIC M. smeg. [5, 11]: ≥ 250 µg/mL; MIC [6, 19]: ≥ 250 µg/mL; Antimycobacterial Activity MIC M. aurum [6, 11]: ≥ 250 µg/mL; IC50 [9, 20]: > 50 µM; IC50 [9, 21]: > 50 µM; IC50 [10, 22]: > 50 µM; IC50 [10, 23]: > 50 µM
Cc1nc2cc(Cl)ccc2c(=O)n1Cc1ccc(Cl)c(Cl)c1 [Compound 24] | 50 (≈ 141 µM) | 25 (≈ 70.7 µM) | ≥ 125 | ≥ 125 | ≥ 125 | – | MIC [1, 15]: > 100 µg/mL; Antimycobacterial Activity MIC Mtb H37Ra [2]: 15.625 µg/mL; MIC [2, 16]: 15.6 µg/mL (≈ 44.2 µM); Antimycobacterial Activity MIC M. kans. [3, 11]: 25 µg/mL; Antimycobacterial Activity MIC M. avium [4]: ≥125 µg/mL; Antimycobacterial Activity MIC M. smeg. [5]: ≥125 µg/mL; Antimycobacterial Activity MIC M. aurum [6]: ≥125 µg/mL; IC50 [9, 20]: > 50 µM; IC50 [9, 21]: > 50 µM; IC50 [10, 22]: > 50 µM; IC50 [10, 23]: > 50 µM
COc1cc(/C=N/n2c(C)nc3cc(Cl)ccc3c2=O)ccc1O [Compound 34] | > 100 | > 100 | ≥ 62.5 | ≥ 62.5 | ≥ 62.5 | ≥ 62.5 | –
Cc1nc2cc(Cl)ccc2c(=O)n1/N=C/c1ccccc1O [Compound 35] | > 50 | > 50 | ≥ 31.2 | ≥ 31.2 | ≥ 31.2 | ≥ 31.2 | –
Cc1nc2cc(Cl)ccc2c(=O)n1/N=C/c1cccc(O)c1 [Compound 36] | > 100 | > 100 | ≥ 62.5 | ≥ 62.5 | ≥ 62.5 | ≥ 62.5 | –
Cc1nc2cc(Cl)ccc2c(=O)n1/N=C/c1ccc(O)cc1 [Compound 37] | > 50 | > 50 | ≥ 62.5 | ≥ 62.5 | ≥ 62.5 | ≥ 62.5 | –
COc1ccccc1/C=N/n1c(C)nc2cc(Cl)ccc2c1=O [Compound 38] | > 25 | > 25 | ≥ 62.5 | ≥ 62.5 | ≥ 62.5 | ≥ 62.5 | –
COc1cccc(/C=N/n2c(C)nc3cc(Cl)ccc3c2=O)c1 [Compound 39] | > 50 | > 50 | ≥ 62.5 | ≥ 62.5 | ≥ 62.5 | ≥ 62.5 | –
COc1ccc(/C=N/n2c(C)nc3cc(Cl)ccc3c2=O)cc1 [Compound 40] | > 50 | > 50 | ≥ 15.6 | ≥ 15.6 | ≥ 15.6 | ≥ 15.6 | –
Cc1nc2cc(Cl)ccc2c(=O)n1/N=C/C=C/c1ccccc1 [Compound 41] | > 25 | > 25 | ≥ 31.2 | ≥ 31.2 | ≥ 31.2 | ≥ 31.2 | –
Cc1nc2cc(Cl)ccc2c(=O)n1/N=C/c1ccccc1F [Compound 42] | > 25 | > 25 | ≥ 31.2 | ≥ 31.2 | ≥ 31.2 | ≥ 31.2 | –
Cc1nc2cc(Cl)ccc2c(=O)n1/N=C/c1cccc(F)c1 [Compound 43] | > 25 | > 25 | ≥ 62.5 | ≥ 62.5 | ≥ 62.5 | ≥ 62.5 | –
Cc1nc2cc(Cl)ccc2c(=O)n1/N=C/c1ccc(F)cc1 [Compound 44] | > 25 | > 25 | ≥ 31.2 | ≥ 31.2 | ≥ 31.2 | ≥ 31.2 | –
Cc1nc2cc(Cl)ccc2c(=O)n1/N=C/c1ccc(N(C)C)cc1 [Compound 45] | > 25 | > 25 | ≥ 15.6 | ≥ 15.6 | ≥ 15.6 | ≥ 15.6 | –
Cc1ccccc1/C=N/n1c(C)nc2cc(Cl)ccc2c1=O [Compound 46] | > 25 | > 25 | ≥ 62.5 | ≥ 62.5 | ≥ 62.5 | ≥ 62.5 | –
Cc1cccc(/C=N/n2c(C)nc3cc(Cl)ccc3c2=O)c1 [Compound 47] | > 25 | > 25 | ≥ 31.2 | ≥ 31.2 | ≥ 31.2 | ≥ 31.2 | –
Cc1ccc(/C=N/n2c(C)nc3cc(Cl)ccc3c2=O)cc1 [Compound 48] | > 25 | > 25 | ≥ 31.2 | ≥ 31.2 | ≥ 31.2 | ≥ 31.2 | –
Cc1nc2cc(Cl)ccc2c(=O)n1/N=C/c1ccccc1Cl [Compound 49] | > 25 | > 25 | ≥ 31.2 | ≥ 31.2 | ≥ 31.2 | ≥ 31.2 | –
Cc1nc2cc(Cl)ccc2c(=O)n1/N=C/c1cccc(Cl)c1 [Compound 50] | > 50 | > 50 | ≥ 62.5 | ≥ 62.5 | ≥ 62.5 | ≥ 62.5 | –
Cc1nc2cc(Cl)ccc2c(=O)n1/N=C/c1ccc(Cl)cc1 [Compound 51] | > 25 | > 25 | ≥ 15.6 | ≥ 15.6 | ≥ 15.6 | ≥ 15.6 | –
Cc1nc2cc(Cl)ccc2c(=O)n1/N=C/c1ccccc1Br [Compound 52] | > 25 | > 25 | ≥ 31.2 | ≥ 31.2 | ≥ 31.2 | ≥ 31.2 | –
Cc1nc2cc(Cl)ccc2c(=O)n1/N=C/c1cccc(Br)c1 [Compound 53, (E)-7-Chloro-3-((3-bromobenzylidene)amino)-2-methylquinazolin-4(3H)-one] | > 25 | > 25 | ≥ 31.2 | ≥ 31.2 | ≥ 31.2 | ≥ 31.2 | –
NNC(=O)c1ccncc1 [INH, isoniazid, reference compound] | 0.2 (≈ 1.46 µM) | 25 (≈ 182 µM) | – | – | – | 0.25 (≈ 1.82 µM) | MIC ([2]; Mycobacterium tuberculosis, H37RA; internal quality controls (standards); read-out: MINIMUM INHIBITORY CONCENTRATION Mycobacterium tuberculosis H37Ra): 0.125 to 0.25 µg/mL (≈ 0.911 to 1.82 µM); MIC ([4]; Mycobacterium avium, DSM44156; internal quality controls (standards); read-out: MINIMUM INHIBITORY CONCENTRATION Mycobacterium avium DSM 44156): 500 to 1000 µg/mL (≈ 3650 to 7290 µM); MIC [4, 17]: 1000 µg/mL (≈ 7290 µM); MIC ([5]; Mycolicibacterium smegmatis, DSM43465; internal quality controls (standards); read-out: MINIMUM INHIBITORY CONCENTRATION Mycolicibacterium smegmatis DSM 43465): 15.6 to 31.2 µg/mL (≈ 114 to 228 µM); MIC [5, 18]: 15.6 µg/mL (≈ 114 µM); MIC ([6]; Mycolicibacterium aurum, DSM43999; internal quality controls (standards); read-out: MINIMUM INHIBITORY CONCENTRATION Mycolicibacterium aurum DSM 43999): 1.95 to 3.91 µg/mL (≈ 14.2 to 28.5 µM); MIC [6, 19]: 3.91 µg/mL (≈ 28.5 µM)
